From US8093273B2, “Flavanoids and isoflavanoids for the prevention and treatment of cardiovascular diseases” (Resverlogix Corp., priority 2004, dated 2012) come the findings set out here.

For series [1], the system named is ApoA-I protein. The experiment in a line: ApoA-I protein expression in HepG2 cells (ELISA of conditioned media). It counts as cell-based, human. To be noted: 7.5 μM; for ApoA-I content in the medium (ELISA): 6 and 24 hours, vs untreated cells and cells treated with solvent; for time after addition of compound at which ApoA-I levels in the medium start to increase: time course 0, 6, 24 hours. As to the method:
This study confirmed that compounds of the invention have an effect on ApoA-I protein secretion in HepG2 (liver) cells by measuring whether stimulation of transcriptional activity of the endogenous ApoA-I promoter in the HepG2 cells increased the abundance and secretion of ApoA-I protein.
The HepG2 cell line was obtained from the ATCC and cultured in MEM media supplemented with 10% FBS (Gibco), with 1 mM sodium pyruvate, 0.1 mM MEM non-essential amino acid, 2 mM L-glutamine, 100 U/ml penicillin, 100 μg/ml streptomycin and 5 μg/ml plasmocin. Cells were maintained at 37° C. in an atmosphere of 5% CO2 Cells were grown to 85% confluency prior to initiating the experiment.
Cells were plated and allowed to adhere overnight in a phenol red-free DMEM containing 10% of Charcoal/Dextran treated FBS (Hyclone), with 1 mM sodium pyruvate, 0.1 mM MEM non-essential amino acid, 2 mM L-glutamine, 100 U/ml penicillin, 100 μg/ml streptomycin and 5 μg/ml plasmocin. The medium was removed, and cells were washed in 1×PBS. Cells were then starved in phenol red-free DMEM (serum free) for a period of 24 hours. Cells were then mock treated (untreated, DMSO), or treated with compound of the invention diluted in phenol red-free DMEM (serum free) media at a concentration of 7.5 μM. Cells and media were harvested at 0, 6 and 24 hours following compound treatment.
Medium was removed from cells at the desired times and applied to a solid phase capture sandwich in an ELISA assay according to manufacturer's instructions (Total human Apolipoprotein ELISA Assay-Alercheck).

Series [2] concerns human ApoA-I promoter. The experiment in a line: ApoA-I promoter induction in Caco-2 intestinal cells (pAI.474-Luc luciferase reporter). It counts as cell-based. The settings on record: Caco-2 cells, 15 μM, 48 hours incubation, luciferase activity vs control samples. In short, it runs like this: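 Caco-2 cells stably carrying the human ApoA-I promoter–firefly luciferase construct (pAI.474-Luc) were starved 24 h in 0.5% FBS medium, then exposed to compound at 0 to 100 μM final for 48 h at 37° C. Luciferase activity in lysates was normalized to Bradford protein and compared with solvent-only and untreated controls.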

Series [3] in a line: Solubility analysis in PBS (HPLC-UV). It counts as physicochemical. To be noted: aqueous buffer, thermodynamic from solid; 1 mg in 1 mL PBS, sonicated 1 hour, 25° C. for 3 hrs. On the procedure:
Samples were then centrifuged at 14,000 rpm for 6 minutes at room temperature. The supernatant was diluted with acetonitrile and was removed for analysis. Analysis was performed using HPLC-UV with 7-point standard curve to determine the concentration. The average concentration calculated is regarded as the solubility (μM).

A short description of series [4]: Caco-2 permeability. It counts as in vitro ADME, human. The settings on record: human, Caco-2. An excerpt: The Caco-2 cell drug transport model is widely used for screening compounds in drug discovery to assess intestinal transport and predict absorption rates.
The test system of series [5] is hApoA-I transgenic mice. The experiment in a line: hApoA-I transgenic mice, oral gavage for 14 days. It counts as in vivo. The settings on record: Mus musculus, po, 336 h, 10 mg/kg BID 14 days, relative to pretreatment, read-out: ApoA-I (% change). The source says:
To test whether the efficacy of compounds of the invention observed in vitro extended to an in vivo model, transgenic mice carrying multiple copies of the human ApoA-I gene (C57BI/6-tgn(apoa1)1 rub, Jackson Laboratory, Bar Harbor, Me.) were exposed to representative compounds of the invention. The exogenous human ApoA-I gene in these mice enables them to express the human ApoA-I protein under the control of this promoter.
Seven to eight week old male mice, transgenic for human ApoA-I were housed five per cage (10″×20″×8″ with aspen chip bedding) with pelleted Rodent chow [Purina 5001] and water available at all times. After an acclimation period of 1 week, animals were individually identified by numbering on tail and weighed. Mice were pre bled via the retro-orbital plexus, and 150 μl of blood was collected in 1.5 ml Eppendorf tube containing 1 μl of heparin and chilled on ice. Plasma was collected after centrifuging the whole blood at 14000 rpm [TOMY high speed micro-refrigerated centrifuge NTX-150] for 10 minutes at 4° C. and frozen at −80° C. Plasma was analyzed for: human ApoA-I by a human ApoA-I enzyme-linked Immunoassay [Direct Sandwich ELISA Calbiochem Cat#178422, Calbiochem Cat#178452, lot #B9076, Calbiochem Cat #178470 conjugated to Horse Radish Peroxidase (Cedarlane Cat#80220)]; total cholesterol [Ponte scientific reagents: # C7509-STD, #L7580-18, # C7510]; and triglyceride [Pointe Scientific Reagents: # 7532-STD, # L7580-18, #7532]. All samples were measured in triplicates and expressed as mg/dl. Mice were grouped based on the above plasma parameters and having an average body weight of 25 gm.
Two days following pre-bleed, mice were dosed by oral gavage daily for 14 days using a 20 gauge, 11/2″ curved disposable feeding needle [Popper & Sons]; when BID, mice were gavaged morning and afternoon (8 am and 5 pm); when SID mice were gavaged in morning (8 am). Compounds were prepared each day in vehicle. Test article(s), a positive control fenofibrate, and vehicle were dosed at volume of 5 mL/kg of body weight as a suspension (0.1 mL/20 g mouse). Fenofibrate was obtained commercially [SIGMA #F 6020]. Mice weights were recorded on day 1, 4, 7, 10, 12, and 15. On day 15, mice were weighed and fasted for 4 hours, sacrificed by inhalation of CO2 and blood was obtained via cardiac puncture (0.7-1.0 ml). Plasma was collected and frozen at −80° C. Samples were assayed for ApoA-I, total cholesterol, triglyceride and HDL-C by HPLC [Polaris 200 with an auto sampler Prostar 410 from Varian on a Superose 6 10/30 column from Amersham]. Samples were sent for NMR analysis [LipoScience] to identify particle size and subclass for lipoproteins. During necropsy, liver, brown fat, and the whole of small and large intestines were collected, cleaned with cold PBS and frozen at −80° C. for further analysis of compound levels. Variation between studies, in ApoA-I changes, was observed. Therefore, a relative comparison between individual(s) in the study groups was used.
4′-hydroxyflavone (10 mg/kg of body weight), 4-(4-oxo-4H-chromen-2-yl)phenyl nicotinate (Example 71) (10 mg/kg of body weight) and fenofibrate (100 mg/kg of body weight) were BID administered to hApoA-I transgenic mice daily for fourteen days by oral gavage in 0.5% Methylcellulose (w/v)/1% Tween 80 (w/v). Plasma was assayed for ApoA-I (FIG. 3A), HDL cholesterol and total cholesterol (FIG. 3B) and percent weight gain (FIG. 3C).
4′-hydroxyflavone (3 mg/kg of body weight), 4′-hydroxyflavone (10 mg/kg of body weight), 4′-hydroxyflavone (30 mg/kg of body weight), 2-(4-Hydroxy-phenyl)-pyrano[2,3-b]pyridin-4-one (10 mg/kg of body weight), and fenofibrate (100 mg/kg of body weight) were BID administered to hApoA-I transgenic mice daily for fourteen days by oral gavage in 0.5% methylcellulose (w/v)/1% Tween 80 (w/v). In this experiment plasma was assayed for ApoA-I. […]

The test system of series [6] is human ApoA-I promoter. The experiment in a line: ApoA-I promoter induction in HepG2 liver cells (pAI.474-Luc luciferase reporter). The settings on record: average values at 15 μM, 48 hours incubation. It counts as cell-based. As to the method:
This study determined whether compounds of the invention have an effect on ApoA-I promoter activity expression in HepG2 cells, a liver cell line. Cells were grown under conditions recommended by the ATCC and summarized by Wong.
The promoter region of the gene encoding human ApoA-I was isolated and ligated upstream the structure gene of firefly luciferase to construct a reporter plasmid (pAI.474-Luc). The reporter plasmid, along with pRSV-β-galactosidase (as a control for transfection efficiency), were co-transfected into HepG2 cells. The cells were then incubated in an MEM selection media containing 20% fetal calf serum supplemented with G418 (final concentration: 0.5 mg/mL, Gibco) to give established strains that stably express from the reporter gene. The strains were seeded to a 6-well culture plates and incubated for 48 hours at 37° C. under 5% carbon dioxide. Cells were starved for 24 hrs in MEM selection media containing 0.5% FBS. Then, a solution of the compounds of the invention in DMSO (or other appropriate solvent) was added to the wells at a final concentration of 0 to 100 μM in MEM selection media containing 0.5% FBS.
After further incubation for 48 hours, the cells were harvested and lysed using Reporter Lysis Buffer (PROMEGA E3971), and 50 μL of luciferase assay reagent (PROMEGA E4550 Luciferase Reporter 1000 assay system) were added to measure luciferase activity with a luminometer (Fluoroskan Ascent FL from Thermo electron Corporation). Luciferase activity was normalized to lysate protein concentrations, measured using Bradford Reagent (Biorad Protein Assay reagent Cat #500-0006).

Where [7] appears, read: Table 6 fourth group, Control 3 1.11.

SMILES strings stand for the structures. In brackets after ≈: the same amount, converted by molar mass. Like-named read-outs stand apart in the source and are kept apart here.

The molecule `Cc1c(-c2ccc(O)cc2)oc2ccccc2c1=O` [Example 24, 2-(4-hydroxyphenyl)-3-methyl-4H-chromen-4-one] had a melting point of 241 to 242 °C. Further, in series [1], the “ApoA-I content in the medium (ELISA)” value was “increased significantly” and the “time after addition of compound at which ApoA-I levels in the medium start to increase” value is approximately 6 h.

`O=c1cc(-c2ccc(O)c(F)c2)oc2ncccc12` [Example 37, 2-(3-fluoro-4-hydroxyphenyl)pyrano[2,3-b]pyridine-4-one] came in with a melting point of 267 to 268 °C. In addition, in series [2], the “ApoA-I Promoter Induction” value is recorded as “increased”. In series [3], this molecule gave a solubility at 3 h of 194 µM (≈ 50 µg/mL). Also, the Papp in series [4] was 2.06 ×10⁻⁶ cm/s. In addition, in series [5] (Table 6 second group, Control 1 3.42), the change in vivo at 10 mg/kg was 14.4%.

For `O=c1cc(-c2ccc(O)cc2)oc2ccncc12` [Example 39, 2-(4-hydroxyphenyl)-4H-pyrano[3,2-c]pyridine-4-one], the melting point lay in the range of 306 to 308 °C. Further, the “ApoA-I Promoter Induction” value in series [2] is on record as “increased”. Besides, the concentration in solution in series [3] (solubility at 3 h) came to 31.6 µM (≈ 7.56 µg/mL). The Papp in series [4] worked out at 1.21 ×10⁻⁶ cm/s. For the same molecule, in series [5] (setting [7]), the change in vivo at 10 mg/kg turned out to be 11.2%.

Take `O=c1cc(-c2ccc(O)c(Cl)c2)oc2ncccc12` [Example 41, 2-(3-chloro-4-hydroxyphenyl)-4H-pyrano[2,3-b]pyridine-4-one]: the melting point is 259 to 262 °C. In addition, the “ApoA-I Promoter Induction” value in series [2] is recorded as “increased”. The solubility at 3 h in series [3] worked out at 84.4 µM (≈ 23.1 µg/mL). In series [4], this molecule yielded a Papp of 1.76 ×10⁻⁶ cm/s.

Molecule `O=c1cc(-c2ccc(O)c(Br)c2)oc2ncccc12` [Example 42, 2-(3-bromo-4-hydroxyphenyl)-4H-pyrano[2,3-b]pyridin-4-one] had a melting point of 267 to 272 °C. Further, the “ApoA-I Promoter Induction” value in series [2] is listed as “increased”. The same molecule registered a solubility at 3 h in series [3] of 52.6 µM (≈ 16.7 µg/mL). For the same molecule, in series [4], the Papp worked out at 0.959 ×10⁻⁶ cm/s.

`COc1cc(-c2cc(=O)c3cccnc3o2)ccc1O` [Example 43, 2-(4-hydroxy-3-methoxyphenyl)-4H-pyrano[2,3-b]pyridine-4-one] displayed a melting point of 253 to 255 °C. In series [2], the “ApoA-I Promoter Induction” value was “increased”. For the same molecule, the solubility at 3 h in series [3] amounted to 47.1 µM (≈ 12.7 µg/mL).

In the case of `COc1ccc(-c2cc(=O)c3cccnc3o2)cc1` [Example 44, 2-(4-methoxyphenyl)-4H-pyrano[2,3-b]pyridine-4-one], the melting point is 269 to 270 °C. In addition, the “ApoA-I Promoter Induction” value in series [2] is listed as “increased”. For the same molecule, in series [1], the “ApoA-I content in the medium (ELISA)” value was “increased significantly” and the “time after addition of compound at which ApoA-I levels in the medium start to increase” value was approximately 6 h.

As to `O=c1cc(-c2ccc(OCCO)cc2)oc2ncccc12` [Example 45, 2-(4-(2-hydroxyethoxy)phenyl)-4H-pyrano[2,3-b]pyridine-4-one], the melting point lay in the range of 157 to 159 °C. For the same molecule, the “ApoA-I Promoter Induction” value in series [2] is “increased”. Moreover, the concentration in solution in series [3] (solubility at 3 h) was 334 µM (≈ 94.6 µg/mL).

With `O=c1[nH]c(-c2ccc(O)cc2)cc2ccccc12` [Example 53, 3-(4-hydroxyphenyl)-2H-isoquinolin-1-one], the melting point was in the range of 239 to 241 °C. The “ApoA-I Promoter Induction” value in series [2] was “increased”. In series [6], the “ApoA-I Promoter Induction” value was “increased”. The same molecule came in with a solubility at 3 h in series [3] of 44.9 µM (≈ 10.7 µg/mL). In series [4], the Papp is 1.76 ×10⁻⁶ cm/s. Also, in series [5] (setting [7]), the change in vivo at 10 mg/kg worked out at 13.2%.

Molecule `COc1cc(OC)c2c(=O)[nH]c(-c3ccc(O)cc3)cc2c1` [Example 60, 3-(4-Hydroxyphenyl)-6,8-dimethoxyisoquinolin-1(2H)-one] showed a melting point of 245 to 247 °C. Also, the “ApoA-I Promoter Induction” value in series [2] was “increased”. For the same molecule, the solubility at 3 h in series [3] came to 58.2 µM (≈ 17.3 µg/mL).

With `O=c1cc(-c2ccc(O)c(CO)c2)oc2ncccc12` [Example 81, 2-(4-hydroxy-3-(hydroxymethyl)phenyl)-4H-pyrano[2,3-b]pyridin-4-one], the melting point was 226 to 227 °C. In addition, the “ApoA-I Promoter Induction” value in series [2] was “increased”. The same molecule registered a solubility at 3 h in series [3] of 48.5 µM (≈ 13.1 µg/mL).

With `CNc1nc(-c2ccc(O)cc2)cc2cc(OC)cc(OC)c12.Cl` [Example 82, 4-(6,8-dimethoxy-1-(methylamino)isoquinolin-3-yl)phenol hydrochloride], the melting point is 250 to 253 °C. The “ApoA-I Promoter Induction” value in series [2] is given as “increased”. Further, the solubility at 3 h in series [3] is 66.8 µM.
